From patent US12350270B2, “Antimalarial agents” (Merck Sharp & Dohme LLC, priority 2019, dated 2025) come the findings set out here.

The EC50 is the concentration that produces a half-maximal response.

In the first assay the test system is parasites (ring stage, in human red blood cell culture). Briefly: Parasite LDH growth assay (antiparasite potency, Parasite Assay). The assay is classed as cell-based, Plasmodium falciparum. The following applies: 0.7% rings, 2% haematocrit, 72 hours at 37° C., LDH readout of parasite growth. The method in brief:
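Ring-stage parasites at 0.7% parasitemia and 2% haematocrit, in RPMI-Hepes/bicarbonate with 5% heat-inactivated human serum and 0.5% albumax, were added to compound-containing medium. Cultures grew 72 h at 37 °C in gassed humidified boxes. Plates were then frozen overnight at −80 °C, thawed 4 h, and growth was measured by LDH assay.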
Regarding `CC[C@]1(C)CC(=O)N([C@@H]2CCOc3ccc(C(=O)NC4c5cc(F)ccc5OCC4(C)O)cc32)C(=N)N1` (single isomer, unassigned) [Example 190C], a half-maximal effect (EC50) was put at 4.9 nM. Still for that read-out and setting: then `CCC1(CC)CC(=O)N([C@H]2c3cc(C(=O)NC4c5ccccc5CC4(C)O)ccc3OC2(C)COC)C(=N)N1` (stereo partly drawn) [Example 76A, (2S,3S)-3-(4,4-diethyl-2-imino-6-oxotetrahydropyrimidin-1(2H)-yl)-N-(2-hydroxy-2-methyl-2,3-dihydro-1H-inden-1-yl)-2-(methoxymethyl)-2-methyl-2,3-dihydrobenzofuran-5-carboxamide], with 8.5 nM.

The same assay, now with this note: Plasmodium falciparum, Erythrocyte, 72 h, 0.7% rings, 2% haematocrit, 72 hours at 37° C., LDH readout of parasite growth.
`CC1(C)CC(=O)N([C@@H]2CCOc3ccc(C(=O)N[C@@H]4c5cc(Cl)ccc5OC[C@@]4(C)O)cc32)C(=N)N1` [Example 195, (4R)-N-[(3S,4R)-6-chloro-3-hydroxy-3-methyl-chroman-4-yl]-4-(2-imino-4,4-dimethyl-6-oxo-hexahydropyrimidin-1-y)chromane-6-carboxamide] displayed an EC50 of 3.5 nM.

`CCC1(CC)CC(=O)N([C@@H]2CCOc3ccc(C(=O)N[C@H]4c5cc(F)ccc5OC(C)(C)[C@@H]4O)cc32)C(=N)N1` [Example 25B, (R)-4-(4,4-diethyl-2-imino-6-oxotetrahydropyrimidin-1(2H)-yl)-N-((3R,4S)-6-fluoro-3-hydroxy-2,2-dimethylchroman-4-yl)chromane-6-carboxamide] had an EC50 of 59.8 nM. Same read-out and setting: the figure for `CCC1(CC)CC(=O)N([C@H]2c3cc(C(=O)N[C@@H]4c5ccccc5OC[C@]4(C)O)ccc3OC[C@@H]2OC)C(=N)N1` [Example 253, (3R,4S)-4-(4,4-diethyl-2-imino-6-oxo-hexahydropyrimidin-1-yl)-N-[(3R,4R)-3-hydroxy-3-methyl-chroman-4-yl]-3-methoxy-chromane-6-carboxamide] is 4.3 nM.

`CCC1(CC)CC(=O)N(C2CC(C(=O)N(C)C)Oc3ccc(C(=O)N[C@@H]4c5ccccc5C[C@H]4O)cc32)C(=N)N1` (stereo partly drawn) [Example 274, 4-(4,4-diethyl-2-imino-6-oxo-hexahydropyrimidin-1-yl)-N6-[(1R,2R)-2-hydroxyindan-1-yl]-N2,N2-dimethyl-chromane-26,-dicarboxamide] showed an EC50 of 98.5 nM.

The molecule `CC1(C)CC(=O)N([C@@H]2CCc3ccc(C(=O)N[C@@H]4c5ccccc5C[C@]4(C)O)cc32)C(=N)N1` [Example 79, (3R)-N-[(1R,2S)-2-hydroxy-2-methyl-indan-1-yl]-3-(2-imino-4,4-dimethyl-6-oxo-hexahydropyrimidin-1-yl)indane-5-carboxamide] gave a concentration for a half-maximal effect (EC50) of 9.6 nM. For `CCC1(CC)CC(=O)N([C@H]2c3cc(C(=O)N[C@@H]4c5ccccc5C[C@H]4O)ccc3OC[C@H]2C)C(=N)N1` [Example 118, (3S,4R)-4-(4,4-diethyl-2-imino-6-oxo-hexahydropyrimidin-1-yl)-N-[(1R,2R)-2-hydroxyindan-1-yl]-3-methyl-chromane-6-carboxamide], the EC50 worked out at 0.9 nM. Still for that read-out and setting: the figure for `COCC1(C)CC(N2C(=N)NC(C)(C)CC2=O)c2cc(C(=O)N[C@@H]3c4ccccc4C[C@]3(C)O)ccc2O1` (stereo partly drawn) [Example 206, N-[(1R,2S)-2-hydroxy-2-methyl-indan-1-yl]-4-(2-imino-4,4-dimethyl-6-oxo-hexahydropyrimidin-1-yl)-2-(methoxymethyl)-2-methyl-chromane-6-carboxamide] is 66 nM; for `CCC1(CC)CC(=O)N([C@@H]2CCCc3ccc(C(=O)N[C@@H]4c5ccccc5C[C@H]4O)cc32)C(=N)N1` [Example 94, (4R)-4-(4,4-diethyl-2-imino-6-oxo-hexahydropyrimidin-1-yl)-N-[(1R,2R)-2-hydroxyindan-1-yl]tetralin-6-carboxamide] it is 1.9 nM; for `CCC1(CC)CC(=O)N(C2CC(C(=O)N(C)C)Oc3ccc(C(=O)N[C@@H]4c5ccccc5OC[C@@]4(C)O)cc32)C(=N)N1` (stereo partly drawn) [Example 303, 4-(4,4-diethyl-2-imino-6-oxo-hexahydropyrimidin-1-yl)-N6-[(3S,4R)-3-hydroxy-3-methyl-chroman-4-yl]-N2,N2-dimethyl-chromane-2,6-dicarboxamide] it is 50.8 nM.
